Assay results from PMC7868322, “Rational Design of A Novel Small-Molecule HIV-1 Inactivator Targeting Both gp120 and gp41 of HIV-1” (Frontiers in Pharmacology, 2021).
Like-named read-outs stand apart in the source and are kept apart here.

Key:
[1] = test system: T2635-resistant virus Q79E N126K; type: cell-based, HIV-1; conditions: means ± SD
HIV-1 Bal (R5) = test: Inhibition of HIV-1 infection (p24 ELISA); type: cell-based; conditions: Human immunodeficiency virus 1; laboratory-adapted strain Bal, CEMx174 5.25 M7 cells, p24 ELISA; read-out: IC50, inhibition of HIV-1 Bal infection
[2] = test system: T2635-resistant virus K90E; type: cell-based, HIV-1; conditions: inactivation of cell-free virions, means ± SD
Cytotoxicity (CCK-8) = type: cell-based; conditions: human
Method: Cell viability was detected following the instructions in the protocol provided in the cell counting kit-8 (CCK-8; Dojindo Molecular Technologies, Gaithersburg, MD, USA) as previously described ([Yang et al., 2018]). Briefly, MT-2 cells and CEMx174 517 5.25 M7 cells (3 × 10^4/well) were incubated with compounds at different concentrations at 37°C for 48 h. Then, the supernatant was discarded, and CCK8 diluted 10 times with fresh medium was added (200 μL/well). After 2–6 h of incubation at 37°C, the absorbance at 450 nm was measured using a microplate reader (Tecan, Männedorf, Switzerland).

T20-resistant virus V38A [3] = type: cell-based, HIV-1; conditions: inactivation of cell-free virions, means ± SD
[4] = test system: T2635-resistant virus Q79E N126K; type: cell-based, HIV-1; conditions: inactivation of cell-free virions, means ± SD
SM145/GS 016 (C, R5) = test: Inactivation of cell-free HIV-1 clinical virus; type: cell-based; conditions: Human immunodeficiency virus 1, inactivation of cell-free virions, means ± SD
92/UG/001 (D, R5 and X4) = test: Inhibition of HIV-1 clinical virus infection; type: cell-based; conditions: Human immunodeficiency virus 1; HIV-1 clinical virus 92/UG/001 (D, R5 and X4); means ± SD
T20-resistant virus V38A [5] = type: cell-based, HIV-1; conditions: means ± SD
[6] = test system: T20-resistant virus V38E N42S; type: cell-based, HIV-1; conditions: inactivation of cell-free virions, means ± SD
[7] = test system: T2635-resistant virus K90E; type: cell-based, HIV-1; conditions: means ± SD
[8] = test system: T2635-resistant virus N113E; type: cell-based, HIV-1; conditions: inactivation of cell-free virions, means ± SD
WT (LAI) = test: microbe, parasite or virus in culture; conditions: Human immunodeficiency virus 1
Method: The inactivation activities of the compounds, alone or in combination, against different cell-free HIV-1 virions were measured as previously described ([Qi et al., 2017]). Briefly, different concentrations of compound or PBS were incubated with 800 TCID50 live virus for 1 h at 4°C. Subsequently, PEG-6000 was added to a final concentration of 3% and incubated for another 1 h at 4°C. The virus was collected by centrifugation of the mixture at 13,000 rpm at 4°C for 30 min. The supernatant was discarded, and the virus was resuspended in 3% PEG-6000 containing 10 mg/mL BSA and centrifuged at 13,000 rpm at 4°C for 30 min. The above procedure was repeated twice to completely remove residual compounds. Finally, the virus particles were resuspended in 100 μL of medium and added to 100 μL of 3 × 10^4 MT-2 or CEMx 174 5.25 M7 cells. After 3-4 days of incubation at 37°C, 50 μL of supernatant per well were collected and mixed with the same volume of 5% Triton X-100. The p24 antigen was detected by ELISA.

D36G (NL4-3 WT) = type: cell-based, HIV-1; conditions: inactivation of cell-free virions, T20-resistant panel D36G (NL4-3 WT); means ± SD
[9] = test system: T20-resistant virus V38E N42S; type: cell-based, HIV-1; conditions: means ± SD
[10] = test system: T2635-resistant virus Q66R N126K; type: cell-based, HIV-1; conditions: means ± SD
WT (NL4-3 D36G) = type: cell-based, HIV-1; conditions: T20-resistant virus panel, means ± SD
[11] = test system: T2635-resistant virus K90E N126K; type: cell-based, HIV-1; conditions: means ± SD
[12] = test system: T20-resistant virus V38A N42D; type: cell-based, HIV-1; conditions: inactivation of cell-free virions, means ± SD
PBL288 (C, R5) = test: Inactivation of cell-free HIV-1 clinical virus; type: cell-based; conditions: Human immunodeficiency virus 1, inactivation of cell-free virions, means ± SD
HIV-1 IIIB (X4) = test: Inhibition of HIV-1 infection (p24 ELISA); type: cell-based; conditions: Human immunodeficiency virus 1, MT2; laboratory-adapted strain IIIB, MT-2 cells, p24 ELISA; read-out: IC50, inhibition of HIV-1 IIIB infection

## CC1(C)CC(NC(=O)C(=O)Nc2ccc(Cl)c(F)c2)CC(C)(C)N1C(=O)COc1ccc(CCN2C(=O)/C(=C/c3ccc(-c4ccc(Cl)c(C(=O)O)c4)o3)SC2=S)cc1 [FD028, (Z)-2-Chloro-5-(5-((3-(4-(2-(4-(2-((4-Chloro-3-Fluorophenyl)amino)-2-oxoacetamido)-2,2,6,6-Tetramethylpiperidin-1-yl)-2-oxoethoxy)phenethyl)-4-oxo-2-Thioxothiazolidin-5-ylidene)methyl)furan-2-yl)benzoic Acid]
[1]
  IC50: 200 ± 70 nM
HIV-1 Bal (R5)
  IC50: 70 nM
[2]
  EC50: 550 ± 230 nM
Cytotoxicity (CCK-8); CEMx174 5.25 M7 cells, read-out: CC50, CEMx174 5.25 M7 cell
  CC50 at 48 h: 18200 nM
Cytotoxicity (CCK-8); MT-2 cells, read-out: CC50, MT-2 cell
  CC50 at 48 h: 29500 nM
T20-resistant virus V38A [3]
  EC50: 780 ± 190 nM
[4]
  EC50: 120 ± 20 nM
SM145/GS 016 (C, R5)
  EC50: 960 ± 90 nM
92/UG/001 (D, R5 and X4)
  IC50: 450 ± 120 nM
T20-resistant virus V38A [5]
  IC50: 1090 ± 130 nM
[6]
  EC50: 490 ± 30 nM
[7]
  IC50: 790 ± 280 nM
[8]
  EC50: 1200 ± 160 nM
WT (LAI)
  EC50: 40 ± 10 nM
D36G (NL4-3 WT)
  EC50: 410 ± 20 nM
[9]
  IC50: 240 ± 20 nM
[10]
  IC50: 320 ± 80 nM
WT (NL4-3 D36G)
  IC50: 170 ± 60 nM
[11]
  IC50: 460 ± 110 nM
[12]
  EC50: 630 ± 140 nM
PBL288 (C, R5)
  EC50: 540 ± 180 nM
HIV-1 IIIB (X4)
  IC50: 330 nM
